{"source": "paper PMC11747885", "about": "“Potent inhibitors of the human RNA ligase Rlig1 highlights its role in RNA integrity maintenance under oxidative cellular stress” (Chemical Science, 2025)", "key": {"[1]": {"molecular_target": "T1, human DNA ligase 1 (hLig1) (Homo sapiens, UniProt P18858)", "T1 construct": "made in house; host or cells: E. coli Rosetta BL21 (DE3), pET28a-hLig1", "T1 sequence (P18858 whole entry)": "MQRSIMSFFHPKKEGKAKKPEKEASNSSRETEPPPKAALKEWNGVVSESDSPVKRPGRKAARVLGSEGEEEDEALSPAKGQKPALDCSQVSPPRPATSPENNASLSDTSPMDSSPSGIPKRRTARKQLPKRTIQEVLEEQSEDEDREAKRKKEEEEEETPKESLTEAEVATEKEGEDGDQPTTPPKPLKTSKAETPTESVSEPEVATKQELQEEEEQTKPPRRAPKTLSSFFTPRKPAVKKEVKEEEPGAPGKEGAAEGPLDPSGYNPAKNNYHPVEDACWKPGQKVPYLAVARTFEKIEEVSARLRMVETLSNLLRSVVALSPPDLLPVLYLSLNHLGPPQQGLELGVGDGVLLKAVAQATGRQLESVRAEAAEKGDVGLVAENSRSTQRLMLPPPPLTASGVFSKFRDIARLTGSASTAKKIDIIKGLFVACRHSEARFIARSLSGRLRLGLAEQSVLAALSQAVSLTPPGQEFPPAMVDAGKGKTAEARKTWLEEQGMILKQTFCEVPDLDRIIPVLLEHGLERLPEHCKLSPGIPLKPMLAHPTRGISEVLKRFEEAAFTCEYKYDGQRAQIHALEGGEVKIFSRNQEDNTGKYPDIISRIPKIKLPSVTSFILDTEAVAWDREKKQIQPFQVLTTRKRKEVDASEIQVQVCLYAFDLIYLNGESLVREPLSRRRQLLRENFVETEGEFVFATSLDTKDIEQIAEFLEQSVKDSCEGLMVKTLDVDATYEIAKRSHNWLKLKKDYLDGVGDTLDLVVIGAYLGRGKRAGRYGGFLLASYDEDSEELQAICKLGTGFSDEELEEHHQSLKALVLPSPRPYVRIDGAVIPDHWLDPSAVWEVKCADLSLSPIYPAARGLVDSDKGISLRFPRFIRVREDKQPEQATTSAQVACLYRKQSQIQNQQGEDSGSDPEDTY", "assay": "DNA ligation assay with various hLig1 concentration at constant inhibitor concentration", "assay_type": "biochemical", "conditions": "10 μM compound, hLig1 titrated (500 nM to 31.3 nM), 30 min 37 °C"}, "[2]": {"test_system": "HEK293 cells", "assay": "RNA integrity analysis of HEK293 cells treated with inhibitors and menadione (TapeStation 28S/18S rRNA)", "assay_type": "cell-based, human", "conditions": "30 μM compound 24 h"}, "[3]": {"molecular_target": "T2, Rlig1-AMP (Homo sapiens, UniProt Q8N999)", "T2 construct": "made in house; host or cells: E. coli BL21 (DE3), pET15b-Rlig1", "T2 sequence (Q8N999 whole entry)": "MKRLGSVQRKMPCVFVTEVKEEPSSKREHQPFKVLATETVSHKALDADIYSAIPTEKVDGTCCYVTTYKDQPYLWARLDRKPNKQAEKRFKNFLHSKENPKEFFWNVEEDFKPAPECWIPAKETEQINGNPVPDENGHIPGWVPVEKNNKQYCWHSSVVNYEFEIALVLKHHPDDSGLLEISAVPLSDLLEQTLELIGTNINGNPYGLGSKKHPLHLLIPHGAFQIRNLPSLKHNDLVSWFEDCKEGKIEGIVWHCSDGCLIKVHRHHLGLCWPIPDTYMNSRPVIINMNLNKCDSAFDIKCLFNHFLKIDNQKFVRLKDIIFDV", "assay": "Radioactive RNA ligation assay (hit validation, 10 µM test and IC50 determination)", "assay_type": "biochemical", "conditions": "for Product formation [%] of RNA ligation, Rlig1: three replicates"}, "[4]": {"test_system": "HEK293 cells", "assay": "Cell viability assay of HEK293 cells treated with inhibitors (CellTiter-Glo)"}, "[5]": {"test_system": "HEK293 cells", "assay": "Light-microscopy of inhibitor- and menadione-treated HEK293 cells", "assay_type": "cell-based, human", "conditions": "30 µM compound 24 h, then menadione 5 h"}, "[6]": {"test_system": "HEK293 cells", "assay": "Cell viability assay of HEK293 cells treated with inhibitors and menadione", "assay_type": "cell-based, human", "conditions": "for Mean Diff, (Predicted (LS) mean diff,) w/o menadione - w menadione: 2 way ANOVA, Šídák's multiple comparisons test, normalised viability"}, "[7]": {"conditions": "log(inhibitor) vs. response, variable slope (four parameters)"}}, "note": "Several values for one entry are separate records, joined by “and”; a condition that tells them apart may be missing. Equal values may be shown once. Entries after “also recorded” stand apart in the source; their conditions may differ. Read-outs that look alike come from different tables or passages of the source."}
{"compound": "Nc1nccc(Nc2ccc(NC(=O)c3ccc(Nc4ncnc5ccccc45)cc3)cc2)n1", "note": "[Compound 47]", "values": [{"measurement": "effect on hLig1 activity (in words)", "setting": "[1]", "value": "least impact on hLig1 activity"}, {"measurement": "28S/18S ratio", "setting": "[2]; Menadione 0 μM", "value": 3.0}, {"measurement": "28S/18S ratio", "setting": "[2]; Menadione 40 μM 5 h", "value": 2.1}, {"measurement": "28S/18S ratio", "setting": "[2]; Menadione 60 μM 5 h", "value": 0.9}, {"measurement": "inhibition of Rlig1-AMP ligation (urea-PAGE)", "setting": "[3]; 10 μM compound, 500 nM Rlig1-AMP, 20 min 37 °C", "value": "Ligation was inhibited; also recorded: inhibited Rlig1-AMP"}, {"measurement": "Bottom (best-fit value), Rlig1", "setting": "[3]; Figure 5B, Sigmoidal, 4PL", "value": 1.324}, {"measurement": "HillSlope (best-fit value), Rlig1", "setting": "[3]; Figure 5B, Sigmoidal, 4PL", "value": -6.786}, {"measurement": "Span (best-fit value), Rlig1", "setting": "[3]; Figure 5B, Sigmoidal, 4PL", "value": 68.62}, {"measurement": "Top (best-fit value), Rlig1", "setting": "[3]; Figure 5B, Sigmoidal, 4PL, X is log(concentration)", "value": 69.95}, {"measurement": "LogIC50 (best-fit value), Rlig1", "setting": "[3]; Figure 5B, Sigmoidal, 4PL, log of µM", "value": 0.6576}, {"measurement": "IC50", "setting": "[3]; Figure 5B, Sigmoidal, 4PL, read-out: IC50 (best-fit value), Rlig1", "value": 4.55, "unit": "µM"}, {"measurement": "HillSlope (best-fit value)", "setting": "[3]; four-parameter fit", "value": 6.82}, {"measurement": "Span (best-fit value)", "setting": "[3]; four-parameter fit", "value": 92.85}, {"measurement": "IC50", "setting": "[3]; four-parameter fit, n = 3, read-out: IC50 (best-fit value)", "value": 4.54, "unit": "µM"}, {"measurement": "Product formation [%] of RNA ligation, Rlig1", "setting": "[3]; log (47 [µM]) 0.273001", "value": "3.068% and 1.075% and 8.355%"}, {"measurement": "Product formation [%] of RNA ligation, Rlig1", "setting": "[3]; log (47 [µM]) 0.574031", "value": "27.5278% and 13.8043% and 34.7122%"}, {"measurement": "Product formation [%] of RNA ligation, Rlig1", "setting": "[3]; log (47 [µM]) 0.875061", "value": "98.3243% and 92.1834% and 95.246%"}, {"measurement": "Product formation [%] of RNA ligation, Rlig1", "setting": "[3]; log (47 [µM]) 1.17609", "value": "100% and 96.1318% and 97.0084%"}, {"measurement": "Product formation [%] of RNA ligation, Rlig1", "setting": "[3]; log (47 [µM]) 1.47712", "value": "100% and 98.2475% and 98.511%"}, {"measurement": "Product formation [%] of RNA ligation, Rlig1", "setting": "[3]; log (47 [µM]) -0.0280287", "value": "6.829% and 0.6969% and 9.287%"}, {"measurement": "Product formation [%] of RNA ligation, Rlig1", "setting": "[3]; log (47 [µM]) -0.329059", "value": "4.933% and 0% and 8.486%"}, {"measurement": "Product formation [%] of RNA ligation, Rlig1", "setting": "[3]; log (47 [µM]) -0.630089", "value": "7.315% and 6.312% and 9.428%"}, {"measurement": "inhibition at 30 µM", "setting": "[3]; log Compound [µM] 1.47712, replicates I-III, read-out: percentage inhibition (dose response curve for IC50)", "value": 100, "unit": "%"}, {"measurement": "inhibition at 0.234375 µM", "setting": "[3]; log Compound [µM] -0.630089, replicates I-III, read-out: percentage inhibition (dose response curve for IC50)", "value": 7.32, "unit": "%"}, {"measurement": "LogIC50 (best-fit value)", "setting": "[3]; log of µM, four-parameter fit", "value": 0.6569}, {"measurement": "Bottom (best-fit value)", "setting": "[3]; [7]", "value": 5.434}, {"measurement": "Top (best-fit value)", "setting": "[3]; [7]", "value": 98.28}, {"measurement": "IC50", "setting": "[3]; radioactive ligation assay, 500 nM Rlig1-AMP, 20 min 37 °C, n = 3, read-out: IC50", "value": 4.54, "unit": "µM"}, {"measurement": "cytotoxicity (in words)", "setting": "[4]; HEK293, 24 h, up to 30 μM", "value": "no detectable cytotoxicity"}, {"measurement": "IC50 (Figure 3D: EC50 values for plot; log(inhibitor) vs. response -- Variable slope (four parameters))", "setting": "[4]; HEK293 cell viability, fit per plate (3 plates, 4 technical replicates each), highest tested concentration 30 µM", "value": "163.557 µM and 35.63 µM and 278.968 µM"}, {"measurement": "LogIC50 (log(inhibitor) vs. response -- Variable slope (four parameters))", "setting": "[4]; HEK293 cell viability, fit per plate (3 plates, 4 technical replicates each), log of [µM]", "value": "2.214 and 1.552 and 2.446"}, {"measurement": "EC50", "setting": "[4]; Homo sapiens, HEK293, 24 h", "value": "> 30", "unit": "µM"}, {"measurement": "cell morphology", "setting": "[5]", "value": "poor adherence and cell shrinkage"}, {"measurement": "Mean Diff, (Predicted (LS) mean diff,) w/o menadione - w menadione", "setting": "[6]; 7.5 µM compound", "value": 27.05}, {"measurement": "Cell viability raw signal, technical replicates", "setting": "[6]; 7.5 µM compound, w Menadione (40µM), 20240508 plate 012", "value": "13447 and 15406 and 23888 and 24895"}, {"measurement": "Cell viability raw signal, technical replicates", "setting": "[6]; 7.5 µM compound, w Menadione (40µM), 20240508 plate 013", "value": "16840 and 14275 and 23542 and 21544"}, {"measurement": "Cell viability raw signal, technical replicates", "setting": "[6]; 7.5 µM compound, w Menadione (40µM), 20240515 plate 014", "value": "21755 and 24259 and 24363 and 21863"}, {"measurement": "Cell viability raw signal, technical replicates", "setting": "[6]; 7.5 µM compound, w Menadione (40µM), 20240515 plate 015", "value": "23813 and 26835 and 27301 and 27718"}, {"measurement": "Cell viability raw signal, technical replicates", "setting": "[6]; 7.5 µM compound, w/o Menadione, 20240508 plate 012", "value": "495890 and 394280 and 400970 and 404470"}, {"measurement": "Cell viability raw signal, technical replicates", "setting": "[6]; 7.5 µM compound, w/o Menadione, 20240508 plate 013", "value": "392490 and 381070 and 376820 and 393330"}, {"measurement": "Cell viability raw signal, technical replicates", "setting": "[6]; 7.5 µM compound, w/o Menadione, 20240515 plate 014", "value": "358610 and 355380 and 351680 and 351260"}, {"measurement": "Cell viability raw signal, technical replicates", "setting": "[6]; 7.5 µM compound, w/o Menadione, 20240515 plate 015", "value": "363930 and 358300 and 404440 and 357100"}, {"measurement": "Mean Diff, (Predicted (LS) mean diff,) w/o menadione - w menadione", "setting": "[6]; 15 µM compound", "value": 26.73}, {"measurement": "Cell viability raw signal, technical replicates", "setting": "[6]; 15 µM compound, w Menadione (40µM), 20240508 plate 012", "value": "20771 and 17972 and 20655 and 18810"}, {"measurement": "Cell viability raw signal, technical replicates", "setting": "[6]; 15 µM compound, w Menadione (40µM), 20240508 plate 013", "value": "17686 and 14464 and 20096 and 19671"}, {"measurement": "Cell viability raw signal, technical replicates", "setting": "[6]; 15 µM compound, w Menadione (40µM), 20240515 plate 014", "value": "22870 and 22437 and 28706 and 27891"}, {"measurement": "Cell viability raw signal, technical replicates", "setting": "[6]; 15 µM compound, w Menadione (40µM), 20240515 plate 015", "value": "23978 and 24873 and 26687 and 23492"}, {"measurement": "Mean Diff, (Predicted (LS) mean diff,) w/o menadione - w menadione", "setting": "[6]; 30 µM compound", "value": 26.18}, {"measurement": "Cell viability raw signal, technical replicates", "setting": "[6]; 30 µM compound, w Menadione (40µM), 20240508 plate 012", "value": "17555 and 22131 and 18922 and 17419"}, {"measurement": "Cell viability raw signal, technical replicates", "setting": "[6]; 30 µM compound, w Menadione (40µM), 20240508 plate 013", "value": "13658 and 13606 and 15514 and 16155"}]}
